Assay results published in publication PMC7380166, “How to Study the Metabolism of New Psychoactive Substances for the Purpose of Toxicological Screenings—A Follow-Up Study Comparing Pooled Human Liver S9, HepaRG Cells, and Zebrafish Larvae” (Frontiers in Chemistry, 2020).
Where two headings read alike, the source gives them in different places.

Key:
HepaRG cells = experiment: Incubations with HepaRG cells, metabolite identification by LC-HRMS/MS; assay type: in vitro ADME, human; conditions: for Absolute peak area, HepaRG [25 μM]: 25 μM parent NPS; for Absolute peak area, HepaRG [25 μM] / Number of phase I metabolites detected, HepaRG [25 μM] / Number of phase II metabolites detected, HepaRG [25 μM] / Absolute peak area, HepaRG [250 μM] / Number of phase I metabolites detected, HepaRG [250 μM] / Number of phase II metabolites detected, HepaRG [250 μM]: 24 h; for Absolute peak area, HepaRG [25 μM] / Absolute peak area, HepaRG [250 μM]: cell culture medium, one replicate of n = 3, n.d. = not detected; for Absolute peak area, HepaRG [250 μM]: 250 μM parent NPS; for Relative number of matches with the four most abundant signals in human plasma, HepaRG [25 μM] / Relative number of matches with the four most abundant signals in human plasma, HepaRG [250 μM] / Relative number of matches with the four most abundant signals in human urine, HepaRG [25 μM] / Relative number of matches with the four most abundant signals in human urine, HepaRG [250 μM]: human data for ephylone and 4F-PHP from Wagmann et al., [2019b]
monooxygenases = conditions: initial monooxygenases activity screenings described elsewhere; ref Caspar et al., [2018a]; Wagmann et al., [2019b],[c]; cited from earlier work
zebrafish larvae [1] = experiment: Zebrafish larvae exposure, metabolite identification by LC-HRMS/MS; conditions: for Number of phase I metabolites detected, Zebrafish larvae / Number of phase II metabolites detected, Zebrafish larvae: 100 μM in medium; for Number of phase I metabolites detected, Zebrafish larvae / Number of phase II metabolites detected, Zebrafish larvae / Absolute peak area, Zebrafish larvae [100 µM]: 24 h; for Absolute peak area, Zebrafish larvae [100 µM]: 100 µM parent NPS in medium, larvae 4 dpf, larvae extract, one replicate of n = 3, n.d. = not detected; for Relative number of matches with the four most abundant signals in human plasma, Zebrafish larvae / Relative number of matches with the four most abundant signals in human urine, Zebrafish larvae: larvae exposed to 100 μM, human data from Wagmann et al., [2019b]
[2] = cited from earlier work; for Detection in pHLS9 [25 µM]: n = 2, according to literature
zebrafish larvae [3] = experiment: In vivo maximum-tolerated concentration (MTC) study in zebrafish larvae; set-up: species or system zebrafish (Danio rerio); conditions: for Survival rate / Survival rates for all tested concentrations / Malformations: larvae 4 dpf; for Survival rate: 24-h treatment, fifteen larvae; for Survival rates for all tested concentrations: 0.01 to 100 μM; for Survival rates for all tested concentrations / Malformations: 24 h; for Concentration considered non-toxic for zebrafish larvae (4 dpf): 24 h exposure via medium; for Malformations: up to 100 μM
Experimental: Internal protocols based on published standard methods (Westerfield, [2007]) were used to perform zebrafish husbandry and the maximum-tolerated concentration (MTC) testing was based on a previous study (Richter et al., [2019a]). Danieau's medium [17 mM NaCl, 2 mM KCl, 0.12 mM MgSO4, 1.8 mM Ca(NO3)2, 1.5 mM HEPES, pH 7.1–7.3, and 1.2 μM methylene blue] at 28°C was used to raise zebrafish larvae of the AB wild-type strain. For MTC testing, 96-well plates were used with 100 μl of medium and one larva per well. Drug exposition was started 4 dpf using 0, 0.01, 0.1, 1, 10, 50, or 100 μM final concentrations of 3,4-DMA-NBOMe, ephylone, 4F-MDMB-BINACA, 4F-PHP, or 1P-LSD, respectively. The drug exposure in the incubator at 28°C lasted 24 h. The final DMSO concentration was 1% (v/v) for all experiments. Monitoring of the larvae was done using a LEICA M205 FA stereo microscope (Leica Mikrosysteme Vertrieb GmbH, Wetzlar, Germany) to detect developmental defects and/or decreased survival rates. Fifteen larvae were used for each experiment.

[4] = Incubations with pooled human liver S9 fraction (pHLS9), metabolite identification by LC-HRMS/MS; assay type: in vitro ADME; conditions: human data for ephylone and 4F-PHP from Wagmann et al., [2019b]
Experimental: According to published procedures (Richter et al., [2017b], [2019b]; Caspar et al., [2018b]; Wagmann et al., [2019b],[c]), the final incubation volume per reaction tube was 150 μl, with a final protein concentration of 2 mg/ml. The given concentrations represent final concentrations. A preincubation for 10 min at 37°C with UGT reaction mixture solution B (containing alamethicin, 25 μg/ml), MgCl2 (2.5 mM), NADP^+ (0.6 mM), isocitrate (2.5 mM), isocitrate dehydrogenase (0.8 U/ml), superoxide dismutase (100 U/ml), acetyl coenzyme A (0.1 mM), phosphate buffer (90 mM, pH 7.4), and pHLS9 (2 mg/ml) was done. Afterwards, UGT reaction mixture solution A (containing UDP glucuronic acid, 2.5 mM), PAPS (40 μM), SAM (1.2 mM), dithiothreitol (1 mM), and glutathione (10 mM) were added, as well as 25 μM 4F-MDMB-BINACA to start the reactions. The mixture was incubated for 360 min. Total amount of organic solvent in incubation mixtures was <2% (Chauret et al., [1998]). After 60 min, an aliquot of the reaction mixture (60 μl) was transferred in another reaction tube containing 20 μl of ice-cold acetonitrile to terminate the reactions. The remaining aliquot (90 μl) was incubated for an additional 300 min, and then the reactions were stopped by adding 30 μl of ice-cold acetonitrile. Thereafter, the reaction tubes were cooled at −20°C for 30 min prior to centrifugation at 18,407 × g for 2 min. The supernatants (50 μl) were transferred into autosampler vials, and 1 μl was injected onto the LC-HRMS/MS system. Control samples without pHLS9 and blank samples without substrate were prepared to confirm the absence of non-metabolically formed and interfering compounds, respectively. All incubations were performed in duplicate.
According to a previous study (Richter et al., [2019a]), a Thermo Fisher Scientific (TF, Dreieich, Germany) Dionex UltiMate 3000 Rapid Separation (RS) UHPLC system with a quaternary UltiMate 3000 RS pump and an UltiMate 3000 RS autosampler controlled by the TF Chromeleon software version 6.8 was used. The LC system was coupled to an Orbitrap-based TF Q-Exactive Plus equipped with a heated electrospray ionization II (HESI-II) source. Calibration was done prior to analysis with a Positive Cal Mix (Supelco, Bellefonte, PA, USA) at a flow rate of 3 μl/min using a syringe pump. The conditions of the LC system were as follows: TF Accucore PhenylHexyl column (100 × 2.1 mm, 2.6 μm particle size); gradient elution with 2 mM ammonium formate solution containing 0.1% (v/v) formic acid (eluent A) and 2 mM ammonium formate solution in acetonitrile/methanol (50:50, v/v) containing 0.1% (v/v) formic acid, and 1% (v/v) water (eluent B). […] The following gradient was used: 0–1.0 min hold 1% B, 1–10 min to 99% B, 10–11.5 min hold 99% B, 11.5–13.5 min hold 1% B. The HESI-II source conditions were as follows: ionization mode, positive; heater temperature, 320°C; ion transfer capillary temperature, 320°C; sheath gas, 60 arbitrary units (AU); auxiliary gas, 10 AU; spray voltage, 4.00 kV; and S-lens RF level, 50.0. Mass spectrometry experiments were performed using high-resolution (HR) full scan mode and a targeted MS^2 mode with an inclusion list for each NPS. The inclusion list contained m/z values of metabolites, which were likely to be formed for example hydroxy, oxo, carboxy, dealkyl, demethylenylated, and defluorinated metabolites (phase I) as well as sulfates and glucuronides (phase II) and combinations of them. Full scan settings were as follows: resolution, 35,000; automatic gain control (AGC) target, 3e6; maximum injection time (IT), 120 ms; scan ranges, 3,4-DMA-NBOMe m/z 100–700, ephylone m/z 200–600, 4F-MDMB-BINACA m/z 150–700, 4F-PHP m/z 200–600, and 1P-LSD m/z 250–700. The settings for the targeted MS^2 mode with the respective inclusion lists were as follows: resolution, 17,500; AGC target, 2e5; maximum IT, 250 ms; loop count, 5; isolation window, 1.0 m/z; stepped normalized collision energy (NCE), 17.5, 35, 52.5%; pick others, enabled. […]

[5] = human biosamples after intake of ephylone and 4F-PHP; ref Wagmann et al., [2019b]; cited from earlier work

SMILES	Absolute peak area, HepaRG [25 μM] (HepaRG cells)	Number of phase I metabolites detected, HepaRG [25 μM] (HepaRG cells)	Number of phase II metabolites detected, HepaRG [25 μM] (HepaRG cells)	Absolute peak area, HepaRG [250 μM] (HepaRG cells)	Number of phase I metabolites detected, HepaRG [250 μM] (HepaRG cells)	Number of phase II metabolites detected, HepaRG [250 μM] (HepaRG cells)	Monooxygenases involved in metabolism (monooxygenases)	Number of phase I metabolites detected, Zebrafish larvae (zebrafish larvae [1])	Number of phase II metabolites detected, Zebrafish larvae (zebrafish larvae [1])	Absolute peak area, Zebrafish larvae [100 µM] (zebrafish larvae [1])	Survival rate (zebrafish larvae [3]; 0.01 μM)	Survival rate (zebrafish larvae [3]; 0.1 μM)	Survival rate (zebrafish larvae [3]; 1 μM)	Survival rate (zebrafish larvae [3]; 10 μM)	Survival rate (zebrafish larvae [3]; 50 μM)	Survival rate (zebrafish larvae [3]; 100 μM)	Survival rates for all tested concentrations (zebrafish larvae [3])	Concentration considered non-toxic for zebrafish larvae (4 dpf) (zebrafish larvae [3])	Malformations (zebrafish larvae [3])	Relative number of matches with the four most abundant signals in human plasma, HepaRG [25 μM] (HepaRG cells)	also measured
COc1ccccc1CNC(C)Cc1ccc(OC)c(OC)c1 (centres unmarked) [3,4-DMA-NBOMe, 1-[3,4-dimethoxy]-N-[ortho-methoxybenzyl]propane-2-amine]	1.48E+09	6	4	1.03E+10	10	7	CYP3A4 was described to be involved in the N-dealkylation and CYP2C19 and CYP2D6 in the O-demethylation and hydroxylation	9	7	6.22E+09	100%	100%	100%	100%	100%	100%	100%	100 µM	no malformations		Number of phase I metabolites detected, pHLS9 [25 μM] ([2]; ref Caspar et al., [2018b]): 6 (Caspar et al., [2018b]); Number of phase II metabolites detected, pHLS9 [25 μM] ([2]; ref Caspar et al., [2018b]): 5 (Caspar et al., [2018b]); Detection in pHLS9 [25 µM] ([2]; 3,4-DMA-NBOMe and metabolites, ref Caspar et al., 2018): +
CCCCC(C(=O)c1ccc(F)cc1)N1CCCC1 (stereo not drawn) [Metabolite 4F-PHP, 4-fluoro-alpha-pyrrolidinohexiophenone]	6.65E+08	5	0	5.45E+09	6	1	CYP1A2, CYP2B6, CYP2C19, and CYP3A4	8	3	4.36E+09	100%	100%	100%	100%	100%	100%	100%	100 µM	no malformations	50%	Relative number of matches with the four most abundant signals in human plasma, HepaRG [250 μM] (HepaRG cells): 50%; Relative number of matches with the four most abundant signals in human urine, HepaRG [25 μM] (HepaRG cells): 25%; Relative number of matches with the four most abundant signals in human urine, HepaRG [250 μM] (HepaRG cells): 50%; Relative number of matches with the four most abundant signals in human plasma, pHLS9 [25 μM] [4]: 75%; Relative number of matches with the four most abundant signals in human urine, pHLS9 [25 μM] [4]: 75%; Relative number of matches with the four most abundant signals in human plasma, Zebrafish larvae (zebrafish larvae [1]): 100%; Relative number of matches with the four most abundant signals in human urine, Zebrafish larvae (zebrafish larvae [1]): 75%; Number of phase I metabolites detected, pHLS9 [25 μM] ([2]; ref Wagmann et al., [2019b]): 6 (Wagmann et al., [2019b]); Number of phase II metabolites detected, pHLS9 [25 μM] ([2]; ref Wagmann et al., [2019b]): 2 (Wagmann et al., [2019b]); Detection in pHLS9 [25 µM] ([2]; 4F-PHP and metabolites, ref Wagmann et al., 2019a): +
CCCC(NCC)C(=O)c1ccc2c(c1)OCO2 (centres unmarked) [Ephylone, N-ethylnorpentylone]	6.38E+08	2	4	3.94E+09	4	6	CYP1A2, CYP2B6, CYP2C19, and CYP3A4	5	4	3.57E+09	100%	100%	100%	100%	100%	100%	100%	100 µM	no malformations	75%	Relative number of matches with the four most abundant signals in human plasma, HepaRG [250 μM] (HepaRG cells): 100%; Relative number of matches with the four most abundant signals in human urine, HepaRG [25 μM] (HepaRG cells): 75%; Relative number of matches with the four most abundant signals in human urine, HepaRG [250 μM] (HepaRG cells): 100%; Relative number of matches with the four most abundant signals in human plasma, pHLS9 [25 μM] [4]: 100%; Relative number of matches with the four most abundant signals in human urine, pHLS9 [25 μM] [4]: 100%; Relative number of matches with the four most abundant signals in human plasma, Zebrafish larvae (zebrafish larvae [1]): 100%; Relative number of matches with the four most abundant signals in human urine, Zebrafish larvae (zebrafish larvae [1]): 100%; Signals with the highest abundance in human plasma and/or urine [5]: highest ephylone-related signals; Number of phase I metabolites detected, pHLS9 [25 μM] ([2]; ref Wagmann et al., [2019b]): 5 (Wagmann et al., [2019b]); Number of phase II metabolites detected, pHLS9 [25 μM] ([2]; ref Wagmann et al., [2019b]): 8 (Wagmann et al., [2019b]); Detection in pHLS9 [25 µM] ([2]; ephylone and metabolites, ref Wagmann et al., 2019a): +
